Measurements as given in ChEMBL document CHEMBL5303762, “Data for DCP probe BI-8668” (2023).

How the values were obtained:
[1] = molecular target: T1, Alpha-1A adrenergic receptor (Homo sapiens) (UniProt P35348); assay: ALPHA1A(H)ANTAG Eurofins SafetyScreen44 (BI); conditions: filed as antagonist, Compound concentration 10.0 uM
T1 sequence (whole entry): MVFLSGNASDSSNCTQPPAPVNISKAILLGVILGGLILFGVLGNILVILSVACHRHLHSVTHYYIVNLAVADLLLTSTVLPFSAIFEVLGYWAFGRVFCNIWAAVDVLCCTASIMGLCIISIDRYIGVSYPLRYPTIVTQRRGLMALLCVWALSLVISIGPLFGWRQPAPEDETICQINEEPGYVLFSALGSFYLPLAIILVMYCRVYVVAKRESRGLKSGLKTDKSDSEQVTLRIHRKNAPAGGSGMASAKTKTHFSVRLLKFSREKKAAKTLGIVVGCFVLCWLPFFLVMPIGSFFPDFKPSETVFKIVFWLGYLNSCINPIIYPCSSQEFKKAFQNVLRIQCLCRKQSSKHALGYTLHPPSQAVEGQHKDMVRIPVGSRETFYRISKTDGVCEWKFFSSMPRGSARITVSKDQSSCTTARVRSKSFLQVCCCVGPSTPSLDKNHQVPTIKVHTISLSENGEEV

[2] = molecular target: Muscarinic acetylcholine receptor M3 (Homo sapiens) (UniProt P20309); conditions: Compound concentration 10.0 uM
[3] = molecular target: Muscarinic acetylcholine receptor M3 (Homo sapiens) (UniProt P20309); assay: M3(H)AGON Eurofins SafetyScreen44 (BI); conditions: filed as agonist, Compound concentration 10.0 uM
D(1B) dopamine receptor = D(1B) dopamine receptor (Homo sapiens, UniProt P21918); assay: GPCRScan assay: inhibition of D5; set-up: radioligand conc. used [nm] 2.0 – 3.0, parental cells HEKT
[4] = molecular target: Sodium-dependent serotonin transporter (Homo sapiens) (UniProt P31645); conditions: Compound concentration 10.0 uM
[5] = molecular target: MAO-A (amine oxidase [flavin-containing] A) (Rattus norvegicus, UniProt P21396); assay: (§1) MAO-A_ANTAG Eurofins SafetyScreen44 (BI); set-up: scale not given: the % may be the effect or the level left; conditions: compound concentration 10 uM, read-out: % Ctrl
[6] = molecular target: Alpha-1D adrenergic receptor (Homo sapiens) (UniProt P25100); conditions: Compound concentration 10.0 uM
[7] = molecular target: Cannabinoid receptor 1 (Homo sapiens) (UniProt P21554); assay: CB1(HU)_AGON Eurofins SafetyScreen44 (BI); conditions: filed as agonist, Compound concentration 10.0 uM
[8] = molecular target: MAO-A (amine oxidase [flavin-containing] A) (Homo sapiens, UniProt P21397); assay: as §1; set-up: scale not given: the % may be the effect or the level left; conditions: compound concentration 10 uM, read-out: % Ctrl
Chain of MAO-A (amine oxidase [flavin-containing] A) (Homo sapiens, UniProt P21397) (P21397 whole entry): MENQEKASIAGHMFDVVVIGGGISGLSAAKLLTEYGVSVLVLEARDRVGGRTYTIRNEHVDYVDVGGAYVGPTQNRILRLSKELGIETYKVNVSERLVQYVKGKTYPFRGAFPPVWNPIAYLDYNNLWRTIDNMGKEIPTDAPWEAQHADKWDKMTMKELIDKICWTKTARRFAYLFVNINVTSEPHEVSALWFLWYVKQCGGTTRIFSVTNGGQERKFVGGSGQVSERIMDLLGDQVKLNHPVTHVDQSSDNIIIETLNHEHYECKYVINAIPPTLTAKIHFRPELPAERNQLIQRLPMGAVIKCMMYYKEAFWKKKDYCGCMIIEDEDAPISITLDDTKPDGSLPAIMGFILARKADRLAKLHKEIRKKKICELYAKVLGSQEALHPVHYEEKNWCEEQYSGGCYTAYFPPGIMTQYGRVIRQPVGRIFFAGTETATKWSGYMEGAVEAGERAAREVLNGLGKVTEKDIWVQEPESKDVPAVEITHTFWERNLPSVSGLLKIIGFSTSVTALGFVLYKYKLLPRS

Chain of D(1B) dopamine receptor (P21918 whole entry): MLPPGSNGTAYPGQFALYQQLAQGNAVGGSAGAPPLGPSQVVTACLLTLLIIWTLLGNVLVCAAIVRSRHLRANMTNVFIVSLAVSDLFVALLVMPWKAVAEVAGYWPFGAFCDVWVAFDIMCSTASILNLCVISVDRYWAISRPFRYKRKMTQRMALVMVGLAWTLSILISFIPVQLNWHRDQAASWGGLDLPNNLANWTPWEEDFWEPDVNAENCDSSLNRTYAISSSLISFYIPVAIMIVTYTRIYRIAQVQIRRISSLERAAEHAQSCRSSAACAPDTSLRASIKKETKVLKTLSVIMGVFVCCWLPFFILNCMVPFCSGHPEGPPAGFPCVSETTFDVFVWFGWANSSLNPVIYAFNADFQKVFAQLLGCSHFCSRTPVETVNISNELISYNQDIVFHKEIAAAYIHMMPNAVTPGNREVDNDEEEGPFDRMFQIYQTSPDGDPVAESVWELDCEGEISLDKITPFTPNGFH
Chain of Muscarinic acetylcholine receptor M3 (Homo sapiens) (P20309 whole entry, looked up): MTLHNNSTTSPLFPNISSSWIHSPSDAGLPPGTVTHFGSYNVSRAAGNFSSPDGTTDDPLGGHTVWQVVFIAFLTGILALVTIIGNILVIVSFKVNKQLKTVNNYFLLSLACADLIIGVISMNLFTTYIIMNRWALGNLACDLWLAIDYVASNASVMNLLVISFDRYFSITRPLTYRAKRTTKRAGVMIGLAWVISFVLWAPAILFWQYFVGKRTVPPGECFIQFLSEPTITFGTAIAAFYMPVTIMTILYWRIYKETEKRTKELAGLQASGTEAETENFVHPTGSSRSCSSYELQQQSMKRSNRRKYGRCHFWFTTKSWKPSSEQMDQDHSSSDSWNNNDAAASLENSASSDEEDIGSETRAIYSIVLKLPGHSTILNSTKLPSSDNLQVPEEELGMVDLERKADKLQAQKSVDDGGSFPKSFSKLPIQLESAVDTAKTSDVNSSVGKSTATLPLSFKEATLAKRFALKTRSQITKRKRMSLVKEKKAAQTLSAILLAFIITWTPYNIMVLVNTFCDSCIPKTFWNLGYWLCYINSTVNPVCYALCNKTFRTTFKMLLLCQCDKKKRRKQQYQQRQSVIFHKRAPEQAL
Chain of Alpha-1D adrenergic receptor (Homo sapiens) (P25100 whole entry): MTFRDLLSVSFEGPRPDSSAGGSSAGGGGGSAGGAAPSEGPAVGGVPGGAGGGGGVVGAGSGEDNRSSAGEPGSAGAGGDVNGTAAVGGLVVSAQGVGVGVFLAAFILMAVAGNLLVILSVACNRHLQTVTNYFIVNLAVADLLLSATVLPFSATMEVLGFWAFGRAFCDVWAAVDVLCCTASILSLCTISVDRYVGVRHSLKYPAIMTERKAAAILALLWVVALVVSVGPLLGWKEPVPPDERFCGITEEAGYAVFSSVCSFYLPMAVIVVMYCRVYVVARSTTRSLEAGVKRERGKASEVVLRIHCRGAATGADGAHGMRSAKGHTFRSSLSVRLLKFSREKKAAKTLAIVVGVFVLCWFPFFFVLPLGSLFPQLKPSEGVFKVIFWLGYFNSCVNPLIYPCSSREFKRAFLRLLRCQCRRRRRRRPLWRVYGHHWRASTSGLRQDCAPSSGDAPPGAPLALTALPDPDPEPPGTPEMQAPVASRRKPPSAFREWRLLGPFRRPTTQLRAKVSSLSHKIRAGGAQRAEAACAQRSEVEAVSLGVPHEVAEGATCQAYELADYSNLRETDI
Chain of Sodium-dependent serotonin transporter (Homo sapiens) (P31645 whole entry, looked up): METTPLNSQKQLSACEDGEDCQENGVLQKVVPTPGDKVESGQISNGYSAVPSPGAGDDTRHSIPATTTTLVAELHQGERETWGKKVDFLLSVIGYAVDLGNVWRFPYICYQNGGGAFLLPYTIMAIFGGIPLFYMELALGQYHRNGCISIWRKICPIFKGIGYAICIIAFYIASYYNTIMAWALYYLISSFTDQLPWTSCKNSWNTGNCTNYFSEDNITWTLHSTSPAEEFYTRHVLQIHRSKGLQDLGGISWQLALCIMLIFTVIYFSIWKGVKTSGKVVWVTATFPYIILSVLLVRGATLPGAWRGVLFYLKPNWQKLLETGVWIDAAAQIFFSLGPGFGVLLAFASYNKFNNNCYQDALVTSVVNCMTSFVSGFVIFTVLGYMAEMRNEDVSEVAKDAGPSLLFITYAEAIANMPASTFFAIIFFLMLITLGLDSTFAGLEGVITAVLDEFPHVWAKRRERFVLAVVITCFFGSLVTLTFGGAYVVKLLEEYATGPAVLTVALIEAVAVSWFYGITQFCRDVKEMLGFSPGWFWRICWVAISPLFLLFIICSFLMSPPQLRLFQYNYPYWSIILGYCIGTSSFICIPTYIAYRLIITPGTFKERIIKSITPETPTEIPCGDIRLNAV
Chain of MAO-A (amine oxidase [flavin-containing] A) (Rattus norvegicus, UniProt P21396) (P21396 whole entry): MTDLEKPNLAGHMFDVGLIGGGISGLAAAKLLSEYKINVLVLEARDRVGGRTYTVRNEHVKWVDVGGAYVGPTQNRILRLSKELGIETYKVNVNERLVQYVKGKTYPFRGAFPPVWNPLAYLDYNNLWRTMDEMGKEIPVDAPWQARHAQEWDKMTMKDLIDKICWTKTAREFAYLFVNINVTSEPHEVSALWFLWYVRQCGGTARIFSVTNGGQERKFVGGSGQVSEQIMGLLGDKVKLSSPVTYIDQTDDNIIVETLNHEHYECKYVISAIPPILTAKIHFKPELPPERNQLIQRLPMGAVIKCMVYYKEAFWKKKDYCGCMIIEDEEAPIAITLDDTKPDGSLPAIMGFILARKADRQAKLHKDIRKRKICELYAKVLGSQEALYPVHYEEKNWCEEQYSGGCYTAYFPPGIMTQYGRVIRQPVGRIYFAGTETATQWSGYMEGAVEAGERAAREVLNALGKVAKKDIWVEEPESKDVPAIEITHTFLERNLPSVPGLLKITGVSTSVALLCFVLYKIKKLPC
Chain of Cannabinoid receptor 1 (Homo sapiens) (P21554 whole entry): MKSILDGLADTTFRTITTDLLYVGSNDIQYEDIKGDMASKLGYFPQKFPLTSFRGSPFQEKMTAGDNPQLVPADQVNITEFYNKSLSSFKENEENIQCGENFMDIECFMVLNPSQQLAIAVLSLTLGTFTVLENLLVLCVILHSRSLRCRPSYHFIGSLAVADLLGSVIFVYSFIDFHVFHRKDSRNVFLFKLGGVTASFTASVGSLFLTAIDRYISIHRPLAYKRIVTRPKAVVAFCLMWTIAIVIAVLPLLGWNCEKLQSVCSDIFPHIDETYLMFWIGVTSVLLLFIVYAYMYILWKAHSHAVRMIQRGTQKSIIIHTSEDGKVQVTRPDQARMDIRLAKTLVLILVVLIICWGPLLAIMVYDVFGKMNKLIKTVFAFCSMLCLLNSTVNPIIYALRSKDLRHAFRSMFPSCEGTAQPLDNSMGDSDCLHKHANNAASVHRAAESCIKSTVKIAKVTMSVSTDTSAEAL

| Structure (SMILES) | residual activity [1] [%] | inhibition [2] [%] | residual activity [3] [%] | Ki (D(1B) dopamine receptor; read-out: Ki) [µM] | Ki (D(1B) dopamine receptor; read-out: pKi (converted)) [µM] | inhibition [4] [%] | activity at 10 µM [5] | inhibition [6] [%] | residual activity [7] [%] | activity at 10 µM [8] |
| --- | --- | --- | --- | --- | --- | --- | --- | --- | --- | --- |
| CCn1c(CNC(=O)c2nc(Cl)cnc2N)[n+](CC)c2ccc(C(=O)N(C)CCN(C)C)cc21 | 89 | 23.3 | 102 | 4.07 | 4.07 | 8.39 | 89% (not active) | 1.74 | – | – |
| CCn1c(CNC(=O)c2ncc(C)nc2N)[n+](CC)c2ccc(C(=O)N(C)CN(C)C)cc21 | – | – | – | – | – | – | – | – | 111 | 95% (not active) |
